# Source: patent publication US7282215B2, “Supports for photosensitizer formulations” (The University of British Columbia, priority 2000, dated 2007)
# Key:
# Assay type in all cases: physicochemical
# [1] = Drug loading of liposomal versus 10% P123 formulations; conditions: prepared at 2 mg/ml
# Procedure: 5 mg drug and lipids (40% EPG in DMPC) are combined in CH2Cl2 at a drug to lipid ratio of 1:10 w/w in 250 ml round bottom flask. The maximum concentration of drug in solvent is 2 mg/ml. CH2Cl2 is removed rapidly as described in Example 5. The resulting thin film is hydrated with 2.5 ml lactose solution (9.5% w/v) using hand swirling with glass beads at 40° C. Extrusion using Model 4T (Lipex Biomembranes Inc. B.C., Canada) is carried out with the thermostat set at 40° C. The multilamellar vesicles (MLVs) arising from hydration steps of the liposomal formulation were also examined under the microscope. MLVs are successively extruded 5 times through each of the 400 nm, 200 nm and 100 nm polycarbonate membranes (Nuclepore PC, Costar). Extruded samples were diluted 1:100 in PBS (pH 7.4) and the absorbance determined at 690 nm wavelength.
# In this experiment liposomal and block copolymer (micellar) photosensitizer formulations of A- and B-ring compounds of EA6 and B3 were compared. Each of the photosensitizer samples was prepared at a final drug concentration of 2 mg/ml. The block copolymer P123, and the liposomal formulations were prepared as described in the Examples 5 and 6, respectively.
# [2] = Optimization of B-B3 incorporation in 10% w/v P123
# Procedure: Using formulation methods described in Example 5, the aim was to incorporate 2 mg/ml of B-B3 into 10% w/v P123. It was shown by this method that the B-B3 can typically be incorporated at ˜1.8 mg/ml drug (based on absorbance readings and a molar extinction coefficient of 30425) 24 h post-hydration. This translates to approximately 10% drug loss. Unincorporated drug undergoes aggregation in aqueous solutions, and is characterized by the appearance of a 730 nm absorbance peak. Although the formulations can be made completely aggregate free by centrifugation or sterile filtration through 0.2 μm filters, this adds another step in the manufacturing process, which can be avoided by increasing the copolymer:drug ratio.
# [3] = Vesicle size of liposomal BPD-MA (conventional and lactose micro-thin film)
# Procedure: For the standard laboratory preparation the liposomal bilayer components of 20 mg BPD-MA, 65 mg egg phosphatidyl glycerol (EPG) and 94 mg dimyristoyl phosphatidylcholine (DMPC), are combined in a round bottom flask and dissolved in 10 ml methylene dichloride (CH2Cl2). […]. The solvent is removed using standard rotary evaporation (Rotavapor R-124 and Buchi B171 Vacobox pump) leaving a thin film of the bilayer components on the flask wall. Once the thin film is prepared, it is hydrated using 10 ml iso-osmolar lactose (10% w/v) to give a final concentration of 2 mg/ml BPD-MA. Size reduction is carried out by consecutive extrusions through 400 nm, 200 nm, and finally 100 nm pore polycarbonate membranes (5 times through each) under high pressure. […] The final product was lyophilized and can be reconstituted prior to use by addition of water.
# 10 mg BPD-MA was combined with 32.5 mg phosphatidyl glycerol (EPG) and 47 mg dimyristoyl phosphatidylcholine (DMPC), and dissolved in 5 ml CH2Cl2. 2.5 ml of this solution (containing 5 mg BPD-MA) was then added to […] lactose in a rotary evaporator flask. The solvent was removed under rotary evaporation at 50° C. The film deposited on the glass wall was hydrated by addition of 2.5 ml warm distilled water (60° C.) with swirling. The hydrated material was examined under the microscope. Size reduction was carried out by extrusion of the hydrated material through 400, 200 and 100 nm pore polycarbonate membranes (5× through each) as described in Example 20.
# In this experiment the effect of replacing CH2Cl2 with ethanol as a solvent for the sugar proliposomal formulation of photosensitizer and phospholipids was examined. The experiment was carried out as described in Example 21 except with the following changes: 20 mg BPD-MA was combined with 65 mg EPG and 94 mg DMPC, and dissolved in a total volume of 20 ml ethanol with occasional warming in 50° C. water bath. Ethanol was removed under rotary evaporation at 50° C., leaving BPD-MA/lipid coated lactose crystals evenly deposited onto flask wall. Flask was removed from the temperature bath, and left under vacuum for 10 min. The contents of the flask were scraped and hydrated by addition of 10 ml distilled water (60° C.) with swirling. The hydrated material was examined under the microscope and the MLV diameter was measured using laser light scattering on a NICOMP™ 370 Submicron Particle Sizer. Extrusion was then carried out as described in Example 20.
# The experimental procedure was carried out was as described in Example 22, with the exception of the following changes. The liposomal bilayer constituents, 32.5 mg of EPG and 47 mg of DMPC, were dissolved in 2 ml ethanol, instead of 20 ml. The solution was warmed to 50° C. in a water bath. This was followed by addition of 10 mg BPD-MA, and the total volume was made up to 4 ml to ensure complete dissolution (2.5 mg/ml final concentration). 0.5 g of lactose was added to the round bottom flask. The solvent was removed by rotary evaporation, and the flask removed from the water bath, and left under vacuum for 1.5 h. For hydration, 5 ml of pre-warmed distilled water (60° C.) was added to flask with swirling. Extrusion of the solution and sizing of the vesicles was carried out as described in Example 22.
# [4] = BPD-MA/F127 deposited on lactose: hydration and 0.2 μm filtration; conditions: 5% w/v and 10% w/v F127 deposited on lactose, hydrated in water
# Procedure: In this experiment the deposition of the photosensitizer BPD-MA with the block copolymer Pluronic® F127 onto the sugar lactose was examined. Formulations containing 5% (w/v) and a 10% (w/v) F127 were tested. 0.5 g lactose and 10 mg BPD-MA were added to two rotary evaporation flasks. A stock solution of […] F127 was prepared in CH2Cl2. 1.25 ml (for 5% w/v) and 2.5 ml (for 10% w/v) F127 stock solution was added to each flask. The final volume in each flask was made up to 5.0 ml with CH2Cl2 and the components mixed to ensure complete dissolution. The solvent was removed by rotary evaporation at 50° C., and the flask left under vacuum for a further 15 min at 23° C. Micro-thin film deposits were scraped from the walls and hydrated in 5 ml water at 50° C. The formulations were filtered twice using 0.2 μm syringe filters (Acrodisc, polysulphone).
Structure (SMILES),"Drug loading, P123 ([1]; Pluronic P123 10% weight/volume) [mg/mL]","Drug loading, Liposome ([1]; liposomal formulation)",Drug loss ([2]; 2 mg/ml added),"Drug incorporated ([2]; 2 mg/ml added, 24 h post-hydration) [mg/mL]",Drug incorporation ([2]; final drug concentration 1 mg/ml),Diameter of MLVs ([3]; hydration of conventional thin films) [μm],"Mean diameter of the MLVs ([3]; lactose micro-thin film from ethanol, 92.44% by volume) [nm]","Diameter of unilamellar vesicles after extrusion, smaller population ([3]; lactose micro-thin film, 20 ml ethanol, 23.17% by volume) [nm]","Diameter of unilamellar vesicles after extrusion, larger population ([3]; lactose micro-thin film, 20 ml ethanol, 76.83% by volume) [nm]","Mean diameter of unilamellar vesicles, smaller population ([3]; lactose micro-thin film, reduced ethanol volume, 29.49% by volume) [nm]","Mean diameter of unilamellar vesicles, larger population ([3]; lactose micro-thin film, reduced ethanol volume, 70.5% by volume) [nm]",Drug loss on filtration through 0.2 μm filters [4]
C=Cc1c(C)c2cc3nc(cc4[nH]c(cc5nc(cc1[nH]2)C1(C)C5=CC=C(C(=O)O)C1C(=O)OC)c(C)c4CCC(=O)OC)C(CCC(=O)OC)=C3C (stereo not drawn) [B-B3],1.24,Very low,approximately 10%,~1.8,complete incorporation of all added drug,–,–,–,–,–,–,–
"C=Cc1c(C)c2cc3nc(cc4[nH]c(cc5nc(cc1[nH]2)C(C)=C5CCC(=O)O)c(CCC(=O)OC)c4C)[C@@]1(C)C3=CC=C(C(=O)OC)[C@H]1C(=O)OC [BPD-MA, benzoporphyrin derivative mono-acid-ring A, reference compound]",–,–,–,–,–,> 1,690,47.9,110.4,58.4,132.4,no drug loss
